The values that follow come from publication PMC11963559, “Identification of novel thiazole derivatives as flaviviral protease inhibitors effective against Dengue (DENV2) and Japanese encephalitis viruses” (Antimicrobial Agents and Chemotherapy, 2025).

The structures appear in SMILES notation.

For one assay, the target named is T1, DENV2 NS2B–NS3 protease (Dengue virus type 2, UniProt P14340).
T1 construct: Activity of recombinant dengue 2 virus NS3 protease in the presence of a truncated NS2B co-factor; The N-terminal domain of NS3 contains a highly conserved protease-active core; made in house; host or cells: Escherichia coli BL21(DE3)
T1 sequence (P14340 1476-1653): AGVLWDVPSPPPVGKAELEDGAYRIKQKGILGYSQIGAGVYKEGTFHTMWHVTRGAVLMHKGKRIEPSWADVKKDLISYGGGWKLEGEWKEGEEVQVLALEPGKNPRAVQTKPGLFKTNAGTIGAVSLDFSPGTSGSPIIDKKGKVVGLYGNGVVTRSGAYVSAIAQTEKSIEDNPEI
T1 sequence (P14340 1398-1437): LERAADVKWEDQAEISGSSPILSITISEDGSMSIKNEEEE
Description: In vitro DENV2 NS2B/NS3pro inhibition assay using a FRET substrate. The assay is classed as biochemical. The settings on record: 5 µM substrate, 10 nM NS2b-NS3pro, compounds at 1, 10 and 100 µM, 1 h at RT; compounds 3s-3an. The procedure: To assess the anti-DENV NS2B–NS3 activity of the compounds, we expressed the DENV2 NS2B–NS3 protease in BL21DE3 cells and subsequently purified it using Ni-NTA affinity chromatography, as outlined in Materials and Methods ([39], [40]). The protease activity assay was performed using different concentrations (1, 2.5, 5, 10, 25, 50, 75, and 100 µM) of a fluorogenic substrate (Abs-Nle-Lys-Arg-Arg-Ser-3-(NO2)Tyr) at various time points (5, 15, 30, 45, and 60 min), as described previously ([39], [41]). […] Therefore, all subsequent assays were conducted with a 1 h incubation time.
The selected compounds were analyzed using in vitro protease assays performed in black 96-well plates. […] All assays were performed in triplicate. The release of free AMC was measured using a Varioskan LUX multimode microplate reader (Thermo Fisher Scientific) at excitation and emission wavelengths of 380 and 460 nm, respectively. Control fluorescence values obtained in the absence of inhibitors were considered 100%, and those obtained in the presence of inhibitors were calculated as the percentage of inhibition of the control using Microsoft Excel and plotted using Origin Pro 2023b. The background AMC in the absence of protease was subtracted before data analysis. Further, protease assay was done using different concentration of the compounds (1, 10, and 100 µM) to evaluate the IC50 for the in vitro assay. IC50 curves were fitted and determined by fitting the nonlinear equation in Origin2023b software. A similar approach was used to analyze the enzymatic kinetics of protease inhibition. The reaction progress was monitored by the release of free aminomethylcoumarin (AMC), as previously described. The substrate was incubated with or without the inhibitor in the aforementioned reaction buffer in the presence of varying concentrations of the substrate. The reactions were initiated by the addition of the NS2B–NS3 protease. Protease activity was monitored for 1 h based on the initial rate of increase in fluorescence intensity at 460 nm, with an excitation wavelength of 380 nm. The results were analyzed using Origin Pro 2023b and the Michaelis–Menten equation to obtain the apparent Michaelis–Menten constants and maximal velocities. All assays were performed in triplicate. For each tested compound, two different concentrations of the inhibitor (0, 10, and 25 µM) were used at various concentrations (0–250 μM) of the substrate. The mechanism of inhibition was determined by observing the deviations in the apparent Km and Vmax values.
On to `COc1ccc(OC)c(/C(C)=N/Nc2nc(-c3cccc([N+](=O)[O-])c3)cs2)c1` [3aa], for which the “IC50 (µM), DENV protease inhibitory activity” value is recorded as “completely lost its activity”.

The assay is the same for the next values; noted with them: IC50 (µM), DENV2 NS2B–NS3 protease inhibitory activity, 5 µM substrate, 10 nM NS2b-NS3pro, compounds at 1, 10 and 100 µM, 1 h at RT; compounds 3a-3r.
`COc1ccccc1/C=N/Nc1nc(-c2cccc([N+](=O)[O-])c2)cs1` [3c] displayed a half-inhibitory concentration (IC50) of 229 µM.

Turning to `Cc1ccc(/C=N/Nc2nc(-c3cccc([N+](=O)[O-])c3)cs2)cc1` [3a], the IC50 is above 100 µM.

In the case of `Fc1ccccc1/C=N/Nc1nc(-c2ccc(Cl)cc2)cs1` [3o], the half-maximal inhibitory concentration (IC50) was above 100 µM.

`O=[N+]([O-])c1cccc(-c2csc(N/N=C/c3cccc(Br)c3)n2)c1` [3i] came in with a concentration for half-maximal inhibition (IC50) of 413 µM.

`COc1ccc(OC)c(/C=N/Nc2nc(-c3ccc(Cl)cc3)cs2)c1` [3m]: the IC50 was found to be 216 µM.

`COc1ccc(OC)c(/C=N/Nc2nc(-c3cccc([N+](=O)[O-])c3)cs2)c1` [3d] gave a 50% inhibitory concentration (IC50) of 139 µM.

Molecule `O=[N+]([O-])c1cccc(-c2csc(N/N=C/c3cccc(Cl)c3)n2)c1` [3g] showed a half-inhibitory concentration (IC50) of 299 µM.

The molecule `COc1ccc(/C=N/Nc2nc(-c3cccc([N+](=O)[O-])c3)cs2)cc1OC` [3e] gave an IC50 of 502 µM.

As for `O=[N+]([O-])c1cccc(-c2csc(N/N=C/c3ccccc3Br)n2)c1` [3h], the IC50 was determined as 342 µM.

`Cc1cc(C)cc(/C=N/Nc2nc(-c3cccc([N+](=O)[O-])c3)cs2)c1` [3b] gave a half-inhibitory concentration (IC50) above 100 µM.

`Clc1ccc(-c2csc(N/N=C/c3cccc(Cl)c3)n2)cc1` [3p] displayed a half-maximal inhibitory concentration (IC50) above 100 µM.

Molecule `Cc1cc(C)cc(/C=N/Nc2nc(-c3ccc(Cl)cc3)cs2)c1` [3k] showed an IC50 above 100 µM.

As for `Clc1ccc(-c2csc(N/N=C/c3ccccc3Br)n2)cc1` [3q], the IC50 is above 100 µM.

In the case of `Clc1ccc(-c2csc(N/N=C/c3cccc(Br)c3)n2)cc1` [3r], the concentration for half-maximal inhibition (IC50) was above 100 µM.

In turn, `COc1ccc(/C=N/Nc2nc(-c3ccc(Cl)cc3)cs2)cc1OC` [3n] registered a half-maximal inhibitory concentration (IC50) of 248 µM.

For `Cc1ccc(/C=N/Nc2nc(-c3ccc(Cl)cc3)cs2)cc1` [3j], the IC50 is 603 µM.

`O=[N+]([O-])c1cccc(-c2csc(N/N=C/c3ccccc3F)n2)c1` [3f] registered a 50% inhibitory concentration (IC50) of 117 µM. Against the preceding molecule, the IC50 is about 5.2-fold lower.

With `COc1ccccc1/C=N/Nc1nc(-c2ccc(Cl)cc2)cs1` [3l], the half-maximal inhibitory concentration (IC50) was above 100 µM.

Staying with this assay, now noted: IC50 (µM), DENV protease inhibitory activity, 5 µM substrate, 10 nM NS2b-NS3pro, compounds at 1, 10 and 100 µM, 1 h at RT; compounds 3ao–3av.
As to `C/C(=N\Nc1nc(-c2ccc(F)cc2)cs1)c1cc(O)cc(O)c1` [3av], the IC50 is 37.1 µM.

For `C/C(=N\Nc1nc(-c2ccc(C)cc2)cs1)c1ccc(O)cc1` [3ap], the midpoint of inhibition, the IC50, lay at 56 µM.

Molecule `C/C(=N\Nc1nc(-c2ccc(C)cc2)cs1)c1cc(O)cc(O)c1` [3at] registered a half-maximal inhibitory concentration (IC50) of 27.7 µM.

In the case of `C/C(=N\Nc1nc(-c2ccccc2)cs1)c1ccc(O)cc1` [3ao], the IC50 is 114 µM.

`C/C(=N\Nc1nc(-c2ccccc2)cs1)c1cc(O)cc(O)c1` [3as] came in with an IC50 above 100 µM.

`C/C(=N\Nc1nc(-c2ccc(F)cc2)cs1)c1ccc(O)cc1` [3ar] came in with a concentration for half-maximal inhibition (IC50) of 250 µM.

Staying with this assay, now noted: IC50 (µM), DENV protease inhibitory activity, 5 µM substrate, 10 nM NS2b-NS3pro, compounds at 1, 10 and 100 µM, 1 h at RT; compounds 3s-3an.
Regarding `COc1ccc(/C(C)=N/Nc2nc(-c3ccc(Cl)cc3)cs2)cc1` [3ai], half-maximal inhibition (IC50) required 399 µM.

`COc1ccc(/C(C)=N/Nc2nc(-c3cccc([N+](=O)[O-])c3)cs2)c(OC)c1` [3z] had a concentration for half-maximal inhibition (IC50) of 171 µM.

`COc1ccc(/C(C)=N/Nc2nc(-c3ccc(Cl)cc3)cs2)c(OC)c1` [3aj] showed a concentration for half-maximal inhibition (IC50) above 100 µM.

`C/C(=N\Nc1nc(-c2cccc([N+](=O)[O-])c2)cs1)c1cc(O)cc(O)c1` [3v] yielded a half-maximal inhibitory concentration (IC50) of 27.4 µM.

In turn, `COc1cccc(/C(C)=N/Nc2nc(-c3cccc([N+](=O)[O-])c3)cs2)c1` [3x] came in with an IC50 of 387 µM.

In turn, `C/C(=N\Nc1nc(-c2ccc(Cl)cc2)cs1)c1ccc(F)cc1` [3an] showed an IC50 above 100 µM.

Consider `COc1ccc(OC)c(/C(C)=N/Nc2nc(-c3cccc([N+](=O)[O-])c3)cs2)c1` [3aa], for which the half-inhibitory concentration (IC50) was above 100 µM.

In turn, `C/C(=N\Nc1nc(-c2ccc(Cl)cc2)cs1)c1cc(O)cc(O)c1` [3ag] returned an IC50 of 92.3 µM.

Consider `COc1cccc(/C(C)=N/Nc2nc(-c3ccc(Cl)cc3)cs2)c1` [3ah], for which 263 µM corresponded to half-maximal inhibition (IC50).

Regarding `C/C(=N\Nc1nc(-c2cccc([N+](=O)[O-])c2)cs1)c1ccc(C)cc1` [3t], the half-maximal inhibitory concentration (IC50) worked out at 113 µM.

Consider `C/C(=N\Nc1nc(-c2cccc([N+](=O)[O-])c2)cs1)c1ccc(O)cc1` [3u], for which the IC50 is 28.7 µM.

With `C/C(=N\Nc1nc(-c2cccc([N+](=O)[O-])c2)cs1)c1ccc(Cl)cc1` [3ac], the half-maximal inhibitory concentration (IC50) is above 100 µM.

`C/C(=N\Nc1nc(-c2cccc([N+](=O)[O-])c2)cs1)c1ccc(F)cc1` [3ad] came in with a 50% inhibitory concentration (IC50) above 100 µM.

For the molecule `COc1ccc(/C(C)=N/Nc2nc(-c3cccc([N+](=O)[O-])c3)cs2)cc1OC` [3ab], the half-inhibitory concentration (IC50) worked out at 31.4 µM.

As to `COc1ccc(OC)c(/C(C)=N/Nc2nc(-c3ccc(Cl)cc3)cs2)c1` [3ak], inhibition was half-maximal at 124 µM (IC50).

The molecule `C/C(=N\Nc1nc(-c2ccc(Cl)cc2)cs1)c1ccc(O)cc1` [3af] returned an IC50 of 144 µM. This IC50 and that of the molecule before are within 1.5-fold of each other.

Turning to `COc1ccc(/C(C)=N/Nc2nc(-c3cccc([N+](=O)[O-])c3)cs2)cc1` [3y], it took 328 µM to reach half-maximal inhibition (IC50).

In the case of `COc1ccccc1/C(C)=N/Nc1nc(-c2cccc([N+](=O)[O-])c2)cs1` [3w], inhibition was half-maximal at 193 µM (IC50).

With `COc1ccc(/C(C)=N/Nc2nc(-c3ccc(Cl)cc3)cs2)cc1OC` [3al], the 50% inhibitory concentration (IC50) was 156 µM.

In turn, `C/C(=N\Nc1nc(-c2ccc(Cl)cc2)cs1)c1ccc(C)cc1` [3ae] returned an IC50 above 100 µM.

Still in this assay, the particulars now being: protease IC50, -H replaced by -CH3 at R1.
On to `COc1ccc(/C(C)=N/Nc2nc(-c3cccc([N+](=O)[O-])c3)cs2)cc1OC` [3ab], for which the “fold improvement in potency in comparison with 3e” value is recorded as ~ 16 fold.

A word on the IC50: it is the concentration that inhibits the measured activity by half.
